# Test results published in patent publication US9845322B2 (Hoffmann-La Roche Inc., priority 2016, dated 2017).
# Where two headings read alike, the source gives them in different places.
# System: HBsAg secretion in HepG2.2.15 cells
# Test: HBsAg assay (chemiluminescence immunoassay of secreted HBsAg in culture supernatant)
# Format: cell-based, HBV
# Details: concentration at which HBsAg secretion was reduced by 50% compared to the no drug control, read-out: IC50 (HBsAg assay)
# Procedure, shortened: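 HepG2.2.15 cells (1.5×10^4/well, duplicate) treated with three-fold compound dilutions, 1% DMSO final, DMSO as no-drug control. Secreted HBsAg in supernatant quantified semi-quantitatively by chemiluminescence immunoassay; IC50 is concentration reducing HBsAg 50% versus no-drug control.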
# [1] = Hepatitis B virus, HepG2.2.15, HepG2.2.15 cells
SMILES,IC50 [1],IC50 (HepG2.2.15 cells)
"CC1c2cnc(-c3ncccn3)nc2CCN1c1cc(F)c(F)c(OCCCN2CCNCC2=O)c1 (centres unmarked) [Example 99, 1-[3-[2,3-difluoro-5-(5-methyl-2-pyrimidin-2-yl-7,8-dihydro-5H-pyrido[4,3-d]pyrimidin-6-yl)phenoxy]propyl]piperazin-2-one]",1270 nM,–
CC1c2cnc(-c3ncccn3)nc2CCN1c1cc(F)c(F)c(OCC2CCS(=O)(=O)C2)c1 (centres unmarked) [Example 100],96 nM,–
"CC1c2cnc(-c3ncccn3)nc2CCN1c1cc(F)c(F)c(OCCCN2CCN(C)CC2)c1 (centres unmarked) [Example 101, 6-[3,4-difluoro-5-[3-(4-methylpiperazin-1-yl)propoxy]phenyl]-5-methyl-2-pyrimidin-2-yl-7,8-dihydro-5H-pyrido[4,3-d]pyrimidine]",113 nM,–
"COC(=O)C(CCOc1cc(N2CCc3nc(-c4ncccn4)ncc3C2C)cc(F)c1F)NC(=O)OC(C)(C)C (centres unmarked) [Example 102, methyl 2-(tert-butoxycarbonylamino)-4-[2,3-difluoro-5-(5-methyl-2-pyrimidin-2-yl-7,8-dihydro-5H-pyrido[4,3-d]pyrimidin-6-yl)phenoxy]butanoate]",249 nM,–
"CC1c2cnc(-c3ncccn3)nc2CCN1c1cc(F)c(F)c(OCCC(NC(=O)OC(C)(C)C)C(=O)O)c1 (centres unmarked) [Example 103, 2-(tert-butoxycarbonylamino)-4-[2,3-difluoro-5-(5-methyl-2-pyrimidin-2-yl-7,8-dihydro-5H-pyrido[4,3-d]pyrimidin-6-yl)phenoxy]butanoic acid]",2160 nM,–
"CC1c2cnc(-c3ncccn3)nc2CCN1c1cc(F)c(F)c(OCCC(N)C(=O)O)c1 (centres unmarked) [Example 104, 2-amino-4-[2,3-difluoro-5-(5-methyl-2-pyrimidin-2-yl-7,8-dihydro-5H-pyrido[4,3-d]pyrimidin-6-yl)phenoxy]butanoic acid]",19000 nM,–
"CC1c2cnc(-c3ncccn3)nc2CCN1c1cc(F)c(F)c(OCCC2CCCO2)c1 (centres unmarked) [Example 105, 6-[3,4-difluoro-5-(2-tetrahydrofuran-2-ylethoxy)phenyl]-5-methyl-2-pyrimidin-2-yl-7,8-dihydro-5H-pyrido[4,3-d]pyrimidine]",23 nM,–
"CC1c2cnc(-c3ncccn3)nc2CCN1c1cc(F)c(F)c(OCCC[S+](C)[O-])c1 (centres unmarked) [Example 106, 6-[3,4-difluoro-5-(3-methylsulfinylpropoxy)phenyl]-5-methyl-2-pyrimidin-2-yl-7,8-dihydro-5H-pyrido[4,3-d]pyrimidine]",208 nM,–
"CC1c2cnc(-c3ncccn3)nc2CCN1c1cc(F)c(F)c(OCCCN2CCNC(=O)C2)c1 (centres unmarked) [Example 107, 4-[3-[2,3-difluoro-5-(5-methyl-2-pyrimidin-2-yl-7,8-dihydro-5H-pyrido[4,3-d]pyrimidin-6-yl)phenoxy]propyl]piperazin-2-one]",171 nM,–
"CC1c2cnc(-c3ncccn3)nc2CCN1c1cc(F)c(F)c(OCCCN2CCN(C(=O)OC(C)(C)C)CC2)c1 (centres unmarked) [Example 108, tert-butyl 4-[3-[2,3-difluoro-5-(5-methyl-2-pyrimidin-2-yl-7,8-dihydro-5H-pyrido[4,3-d]pyrimidin-6-yl)phenoxy]propyl]piperazine-1-carboxylate]",84 nM,–
"CC(=O)N1CCN(CCCOc2cc(N3CCc4nc(-c5ncccn5)ncc4C3C)cc(F)c2F)CC1 (centres unmarked) [Example 109, 1-[4-[3-[2,3-difluoro-5-(5-methyl-2-pyrimidin-2-yl-7,8-dihydro-5H-pyrido[4,3-d]pyrimidin-6-yl)phenoxy]propyl]piperazin-1-yl]ethanone]",80 nM,–
"CC1c2cnc(-c3ncccn3)nc2CCN1c1cc(F)c(F)c(OCCCN2CCN(S(C)(=O)=O)CC2)c1 (centres unmarked) [Example 110, 6-[3,4-difluoro-5-[3-(4-methylsulfonylpiperazin-1-yl)propoxy]phenyl]-5-methyl-2-pyrimidin-2-yl-7,8-dihydro-5H-pyrido[4,3-d]pyrimidine]",79 nM,–
"COc1cc(N2CCc3nc(-c4ncccn4)ncc3C2C)cc(F)c1I (centres unmarked) [Example 111, 6-(3-fluoro-4-iodo-5-methoxy-phenyl)-5-methyl-2-pyrimidin-2-yl-7,8-dihydro-5H-pyrido[4,3-d]pyrimidine]",41 nM,–
"COc1cc(N2CCc3nc(-c4ncccn4)ncc3C2C)cc(C(F)(F)F)c1 (centres unmarked) [Example 112, 6-[3-methoxy-5-(trifluoromethyl)phenyl]-5-methyl-2-pyrimidin-2-yl-7,8-dihydro-5H-pyrido[4,3-d]pyrimidine]",84 nM,–
"CC1c2cnc(-c3ncccn3)nc2CCN1c1cc(F)c(F)c(OCCCN2CCNC2=O)c1 (centres unmarked) [Example 113, 1-[3-[2,3-difluoro-5-(5-methyl-2-pyrimidin-2-yl-7,8-dihydro-5H-pyrido[4,3-d]pyrimidin-6-yl)phenoxy]propyl]imidazolidin-2-one]",94 nM,–
"CC1c2cnc(-c3ncccn3)nc2CCN1c1cc(F)c(F)c(OCCC2CCOC2)c1 (centres unmarked) [Example 114, 6-[3,4-difluoro-5-(2-tetrahydrofuran-3-ylethoxy)phenyl]-5-methyl-2-pyrimidin-2-yl-7,8-dihydro-5H-pyrido[4,3-d]pyrimidine]",18 nM,–
"CC1c2cnc(-c3ncccn3)nc2CCN1c1cc(F)c(F)c(OCCC2CN(C(=O)OC(C)(C)C)C2)c1 (centres unmarked) [Example 115, tert-butyl 3-[2-[2,3-difluoro-5-(5-methyl-2-pyrimidin-2-yl-7,8-dihydro-5H-pyrido[4,3-d]pyrimidin-6-yl)phenoxy]ethyl]azetidine-1-carboxylate]",12 nM,–
"CC1c2cnc(-c3ncccn3)nc2CCN1c1cc(F)c(F)c(OCCC2CNC2)c1 (centres unmarked) [Example 116, 6-[3-[2-(azetidin-3-yl)ethoxy]-4,5-difluoro-phenyl]-5-methyl-2-pyrimidin-2-yl-7,8-dihydro-5H-pyrido[4,3-d]pyrimidine]",902 nM,–
"CC(=O)N1CC(CCOc2cc(N3CCc4nc(-c5ncccn5)ncc4C3C)cc(F)c2F)C1 (centres unmarked) [Example 117, 1-[3-[2-[2,3-difluoro-5-(5-methyl-2-pyrimidin-2-yl-7,8-dihydro-5H-pyrido[4,3-d]pyrimidin-6-yl)phenoxy]ethyl]azetidin-1-yl]ethanone]",72 nM,–
"CC1c2cnc(-c3ncccn3)nc2CCN1c1cc(F)c(F)c(OCCC2CN(S(C)(=O)=O)C2)c1 (centres unmarked) [Example 118, 6-[3,4-difluoro-5-[2-(1-methylsulfonylazetidin-3-yl)ethoxy]phenyl]-5-methyl-2-pyrimidin-2-yl-7,8-dihydro-5H-pyrido[4,3-d]pyrimidine]",13 nM,–
"CC1c2cnc(-c3ncccn3)nc2CCN1c1cc(F)c(F)c(OCC2CSC2)c1 (centres unmarked) [Example 119, 6-[3,4-difluoro-5-(thietan-3-ylmethoxy)phenyl]-5-methyl-2-pyrimidin-2-yl-7,8-dihydro-5H-pyrido[4,3-d]pyrimidine]",51 nM,–
"CC1c2cnc(-c3ncccn3)nc2CCN1c1cc(F)c(F)c(OCC2CS(=O)(=O)C2)c1 (centres unmarked) [Example 120, 3-[[2,3-difluoro-5-(5-methyl-2-pyrimidin-2-yl-7,8-dihydro-5H-pyrido[4,3-d]pyrimidin-6-yl)phenoxy]methyl]thietane 1,1-dioxide]",96 nM,–
"CC1c2cnc(-c3ncccn3)nc2CCN1c1cc(F)c(F)c(OC2CCOC2)c1 (centres unmarked) [Example 121, 6-(3,4-difluoro-5-tetrahydrofuran-3-yloxy-phenyl)-(5R/S)-methyl-2-pyrimidin-2-yl-7,8-dihydro-5H-pyrido[4,3-d]pyrimidine]",–,42 nM
